# Laboratory results published in US8946280B2, “Plant growth regulating compounds” (Syngenta Participations AG, priority 2010, dated 2015).
# Tested on: Orobanche cumana Wallr. seeds (race F; seed lots IN146 and IN153)
# Assay: Germination of preconditioned Orobanche cumana seeds on glass fiber filter paper in petri dishes
# Assay type: in vivo
# Details: mean, N = 5 × 100 seeds, re-transformed data; for Germination (%): seed lot IN146 raceF, examined 10 days later
# Experimental: The effect of compounds of formula (I) on germination of Orobanche cumana Wallr. seeds was evaluated on glass fiber filter paper (GFFP) in petri dishes. Seeds were preconditioned at moisture and suitable temperature to become responsive to the specific chemical germination stimulants.
# Test compounds were dissolved in DMSO (10 000 mg 1^−1) and stored at room temperature in a desiccators with desiccants. The stock solutions were dissolved with deionised water to the appropriate final test concentration.
# Seeds of O. cumana race ‘F’ were collected from sunflower fields in Manzanilla (Seville, Spain) in 2006 (seed lot IN146) and 2008 (seed lot IN153) and stored at room temperature. To separate seeds from heavy organic debris, a modified sucrose floatation technique as described by Hartman & Tanimonure (Plant Disease (1991), 75, p. 494) was applied. Seeds were filled into a separation funnel and stirred in water. When seeds floated to the surface, the water fraction containing heavy debris was discarded. Seeds were re-suspended in 2.5M sucrose solution (specific gravity of 1.20) and heavy debris was allowed to settle down for 60 min. After removing debris, seeds were disinfected in 1% sodium hypochlorite solution and 0.025% (v/v) Tween 20 for 2 min. The seeds were decanted onto two layers of cheesecloth, rinsed with sterile deionised water and re-suspended in sterile deionised water. Two ml of the seed suspension containing approximately 150-400 seeds were spread evenly on two layers of sterile glass fiber filter paper disc ([…]) in Petri dishes (Ø9 cm). After wetting the discs with 3 ml sterile deionised water, petri dishes were sealed with parafilm. Seeds were incubated for 10 days at 20° C. in the dark for seed conditioning. The upper disc with conditioned seeds was briefly dried, transferred to a petri dish lined with a dry GFFP disc, and wetted with 6 ml of the appropriate test solution. The compounds of formula (I) were tested at concentrations of 0.001, 0.01, and 0.1 mg 1^−1. The strigolactone analogue GR24 (commercially available as a mixture of isomers) was included as positive control and 0.001% DMSO as negative control. All treatments were tested in five replicates. Seeds were re-incubated at 20° C. in the dark and examined for germination 10 days later. The radicles of germinated seeds were stained for 5 min with blue ink (MIGROS, Switzerland) in 5% acetic acid according to Long et al. (Seed Science Research (2008), 18, p. 125). After staining, seeds were scanned using a flatbed scanner with an optical resolution of 1200 dpi (PULSTEK, OpticPro ST28) or photographed using a camera stand mounted with a digital SLR camera (Canon EOS 5D). Germination of 100 seeds per replicate was evaluated on digital images. Seeds were considered germinated when the radicle protruded from the seed coat. SAS statistical software package version 9.1 was used for analysis of variance (GLM procedure) and multiple comparisons of treatment means (Sidak t-test) based on arcsine transformed percentage germination data.
# [1] = 0.001 mg l^−1, lot IN146, raceF, Table 4
# [2] = 0.01 mg l^−1, lot IN146, raceF, Table 4
# [3] = 0.1 mg l^−1, lot IN146, raceF, Table 4
# [4] = Table 5, seed lot IN146, race F, 0.001 mg l^−1
# [5] = Table 5, seed lot IN146, race F, 0.01 mg l^−1
# [6] = Table 5, seed lot IN146, race F, 0.1 mg l^−1
# [7] = Table 8, seed lot IN153, race F, 0.001 mg l^−1
# [8] = Table 8, seed lot IN153, race F, 0.01 mg l^−1
# [9] = Table 8, seed lot IN153, race F, 0.1 mg l^−1
# [10] = Table 7, seed lot IN153, race F, 0.001 mg l^−1
# [11] = Table 7, seed lot IN153, race F, 0.01 mg l^−1
# [12] = Table 7, seed lot IN153, race F, 0.1 mg l^−1
# [13] = Table 6, seed lot IN146, race F, 0.001 mg l^−1
# [14] = Table 6, seed lot IN146, race F, 0.01 mg l^−1
# [15] = Table 6, seed lot IN146, race F, 0.1 mg l^−1
smiles,measurement,setting,value
CC1=CC(OC=C2C(=O)NC3c4c(C#N)cccc4CC23)OC1=O (mixture of isomers) [A12*],Germination % at concentration of 0.001 mg l^−1,[1],0 e %
same,Germination % at concentration of 0.01 mg l^−1,[2],4.2 e %
same,Germination % at concentration of 0.1 mg l^−1,[3],32 bcde %
CC1=CC(OC=C2C(=O)N(C(=O)OC(C)(C)C)C3c4ccccc4CC23)OC1=O (mixture of isomers) [A15*],Germination % at concentration of 0.001 mg l^−1,[4],0 e %
same,Germination % at concentration of 0.01 mg l^−1,[5],12.4 de %
same,Germination % at concentration of 0.1 mg l^−1,[6],25 d %
CC1=CC(OC=C2C(=O)N(c3ccc(C#N)cn3)C3c4ccccc4CC23)OC1=O (mixture of isomers) [A16*],Germination % at concentration of 0.001 mg l^−1,[7],7.8 fg %
same,Germination % at concentration of 0.01 mg l^−1,[8],60.6 cde %
same,Germination % at concentration of 0.1 mg l^−1,[9],88.2 abc %
CC1=CC(OC=C2C(=O)N(c3ccc(C(F)(F)F)cc3)C3c4ccccc4CC23)OC1=O (mixture of isomers) [A19*],Germination % at concentration of 0.001 mg l^−1,[7],71.5 abcde %
same,Germination % at concentration of 0.01 mg l^−1,[8],92.2 abc %
same,Germination % at concentration of 0.1 mg l^−1,[9],96.4 a %
CC(=O)OC1c2ccccc2C2C1C(=COC1C=C(C)C(=O)O1)C(=O)N2C(=O)OC(C)(C)C (mixture of isomers) [A24*],Germination % at concentration of 0.001 mg l^−1,[7],44.8 def %
same,Germination % at concentration of 0.01 mg l^−1,[8],86.4 abcd %
same,Germination % at concentration of 0.1 mg l^−1,[9],96.8 a %
CC1=CC(OC=C2C(=O)N(C(=O)OC(C)(C)C)C3c4ccccc4C(F)C23)OC1=O (mixture of isomers) [A25*],Germination % at concentration of 0.001 mg l^−1,[10],1.2 c %
same,Germination % at concentration of 0.01 mg l^−1,[11],14.3 c %
same,Germination % at concentration of 0.1 mg l^−1,[12],86.3 ab %
CC1=CC(OC=C2C(=O)N(CC#N)C3c4ccccc4CC23)OC1=O (mixture of isomers) [A28*],Germination % at concentration of 0.001 mg l^−1,[7],42.4 ef %
same,Germination % at concentration of 0.01 mg l^−1,[8],89.2 abc %
same,Germination % at concentration of 0.1 mg l^−1,[9],96.3 ab %
C=CCN1C(=O)C(=COC2C=C(C)C(=O)O2)C2Cc3ccccc3C21 (mixture of isomers) [A29*],Germination % at concentration of 0.001 mg l^−1,[7],90.3 abc %
same,Germination % at concentration of 0.01 mg l^−1,[8],94.5 abc %
same,Germination % at concentration of 0.1 mg l^−1,[9],94.0 abc %
"CC1=CC(O/C=C2/C(=O)NC3c4ccccc4C[C@H]23)OC1=O (stereo in doubt) [Compound P1, (3aR*,8bS*,5′R*)-3-[1-(4-Methyl-5-oxo-2,5-dihydro-furan-2-yloxy)-meth-(E)-ylidene]-3,3a,4,8b-tetrahydro-1H-indeno[1,2-b]pyrrol-2-one]",Germination (%),0.001 mg l^−1,70.5%
same,Germination (%),0.01 mg l^−1,83.7%
same,Germination (%),0.1 mg l^−1,83.1%
"CC1=CC(O/C=C2/C(=O)N(Cc3ccc(F)cc3)C3c4ccccc4CC23)OC1=O (stereo not drawn) [A27*, (3E)-1-[(4-fluorophenyl)methyl]-3-[(4-methyl-5-oxo-2H-furan-2-yl)oxymethylene]-4,8b-dihydro-3aH-indeno[1,2-b]pyrrol-2-one]",Germination % at concentration of 0.001 mg l^−1,[7],7.7 fg %
same,Germination % at concentration of 0.01 mg l^−1,[8],63.3 abcde %
same,Germination % at concentration of 0.1 mg l^−1,[9],80.1 abcde %
CC1=CC(OC=C2C(=O)NC3c4cccc(Br)c4CC23)OC1=O (stereo not drawn) [Compound A2],Germination % at concentration of 0.001 mg l^−1,[4],76.9 abc %
same,Germination % at concentration of 0.01 mg l^−1,[5],82 ab %
same,Germination % at concentration of 0.1 mg l^−1,[6],83.2 ab %
CC1=CC(OC=C2C(=O)NC3c4cc(C)ccc4CC23)OC1=O (stereo not drawn) [Compound A3],Germination % at concentration of 0.001 mg l^−1,[10],96.4 ab %
same,Germination % at concentration of 0.01 mg l^−1,[11],98.5 a %
same,Germination % at concentration of 0.1 mg l^−1,[12],98.0 a %
COc1ccc2c(c1)CC1C(=COC3C=C(C)C(=O)O3)C(=O)NC21 (stereo not drawn) [Compound A4],Germination % at concentration of 0.001 mg l^−1,[10],98.9 a %
same,Germination % at concentration of 0.01 mg l^−1,[11],95.8 ab %
same,Germination % at concentration of 0.1 mg l^−1,[12],99.0 a %
CC1=CC(OC=C2C(=O)NC3c4cccc(C)c4CC23)OC1=O (stereo not drawn) [Compound A5],Germination % at concentration of 0.001 mg l^−1,[1],74.5 abc %
same,Germination % at concentration of 0.01 mg l^−1,[2],90 a %
same,Germination % at concentration of 0.1 mg l^−1,[3],85.5 ab %
CC1=CC(OC=C2C(=O)NC3c4c(Br)cccc4CC23)OC1=O (stereo not drawn) [Compound A6],Germination % at concentration of 0.001 mg l^−1,[1],22.3 cde %
same,Germination % at concentration of 0.01 mg l^−1,[2],59.2 abcd %
same,Germination % at concentration of 0.1 mg l^−1,[3],27.8 bcde %
CC1=CC(OC=C2C(=O)NC3c4c(C)cccc4CC23)OC1=O (stereo not drawn) [Compound A8],Germination % at concentration of 0.001 mg l^−1,[13],72.9 bc %
same,Germination % at concentration of 0.01 mg l^−1,[14],84.4 abc %
same,Germination % at concentration of 0.1 mg l^−1,[15],69.9 bc %
CC1=CC(OC=C2C(=O)NC3c4ccc(F)cc4CC23)OC1=O (stereo not drawn) [Compound A9],Germination % at concentration of 0.001 mg l^−1,[13],90.2 ab %
same,Germination % at concentration of 0.01 mg l^−1,[14],85.2 abc %
same,Germination % at concentration of 0.1 mg l^−1,[15],71.5 bc %
CC1=CC(OC=C2C(=O)NC3c4ccc(Cl)cc4CC23)OC1=O (stereo not drawn) [Compound A10],Germination % at concentration of 0.001 mg l^−1,[1],81.3 abc %
same,Germination % at concentration of 0.01 mg l^−1,[2],84.0 ab %
same,Germination % at concentration of 0.1 mg l^−1,[3],85.1 ab %
CC1=CC(OC=C2C(=O)NC3c4cccc(C#N)c4CC23)OC1=O (stereo not drawn) [Compound A11],Germination % at concentration of 0.001 mg l^−1,[4],86.3 ab %
same,Germination % at concentration of 0.01 mg l^−1,[5],88.4 ab %
same,Germination % at concentration of 0.1 mg l^−1,[6],85.5 ab %
CCCc1cccc2c1C1NC(=O)C(=COC3C=C(C)C(=O)O3)C1C2 (stereo not drawn) [Compound A13],Germination % at concentration of 0.001 mg l^−1,[1],14.3 de %
same,Germination % at concentration of 0.01 mg l^−1,[2],64.5 abcd %
same,Germination % at concentration of 0.1 mg l^−1,[3],21.5 cde %
CCCc1cccc2c1CC1C(=COC3C=C(C)C(=O)O3)C(=O)NC21 (stereo not drawn) [Compound A14],Germination % at concentration of 0.001 mg l^−1,[4],85.3 ab %
same,Germination % at concentration of 0.01 mg l^−1,[5],91.5 a %
same,Germination % at concentration of 0.1 mg l^−1,[6],86.2 ab %
CC1=CC(OC=C2C(=O)N(c3ccccc3)C3c4ccccc4CC23)OC1=O (stereo not drawn) [Compound A17],Germination % at concentration of 0.001 mg l^−1,[10],99.2 a %
same,Germination % at concentration of 0.01 mg l^−1,[11],98.9 a %
same,Germination % at concentration of 0.1 mg l^−1,[12],99.4 a %
CC1=CC(OC=C2C(=O)N(c3ccc(Cl)cc3)C3c4ccccc4CC23)OC1=O (stereo not drawn) [Compound A18],Germination % at concentration of 0.001 mg l^−1,[10],89.8 ab %
same,Germination % at concentration of 0.01 mg l^−1,[11],99.1 a %
same,Germination % at concentration of 0.1 mg l^−1,[12],99.1 a %
COc1ccc(N2C(=O)C(=COC3C=C(C)C(=O)O3)C3Cc4ccccc4C32)cc1 (stereo not drawn) [Compound A20],Germination % at concentration of 0.001 mg l^−1,[10],2.0 c %
same,Germination % at concentration of 0.01 mg l^−1,[11],14.4 c %
same,Germination % at concentration of 0.1 mg l^−1,[12],89.3 ab %
CCOC(=O)N1C(=O)C(=COC2C=C(C)C(=O)O2)C2Cc3ccccc3C21 (stereo not drawn) [Compound A21],Germination % at concentration of 0.001 mg l^−1,[7],83.7 abcde %
same,Germination % at concentration of 0.01 mg l^−1,[8],93.4 abc %
same,Germination % at concentration of 0.1 mg l^−1,[9],96.7 a %
CC(=O)N1C(=O)C(=COC2C=C(C)C(=O)O2)C2Cc3ccccc3C21 (stereo not drawn) [Compound A22],Germination % at concentration of 0.001 mg l^−1,[7],87.6 abc %
same,Germination % at concentration of 0.01 mg l^−1,[8],95.3 ab %
same,Germination % at concentration of 0.1 mg l^−1,[9],95.7 ab %
